Holding throughout (assay): KINOMEscan competition binding
Test [1] deals with CAMK2D (Homo sapiens, UniProt Q13557). The settings on record: read-out: %Inh CAMK2D.
The target in test [2] is CDK11 (Homo sapiens, UniProt Q9BWU1). The settings on record: read-out: %Inh CDK11.
Test [3] deals with CDK8 (Homo sapiens, UniProt P49336). The settings on record: read-out: %Inh CDK8.
The target in test [4] is CSNK1D (Homo sapiens, UniProt P48730). The settings on record: read-out: %Inh CSNK1D.
Test [5] has as its target EPHA5 (Homo sapiens, UniProt P54756). The settings on record: read-out: %Inh EPHA5.
For test [6], the target named is T1, GRK7 (Homo sapiens, UniProt Q8WTQ7).
T1 sequence (Q8WTQ7 1-553): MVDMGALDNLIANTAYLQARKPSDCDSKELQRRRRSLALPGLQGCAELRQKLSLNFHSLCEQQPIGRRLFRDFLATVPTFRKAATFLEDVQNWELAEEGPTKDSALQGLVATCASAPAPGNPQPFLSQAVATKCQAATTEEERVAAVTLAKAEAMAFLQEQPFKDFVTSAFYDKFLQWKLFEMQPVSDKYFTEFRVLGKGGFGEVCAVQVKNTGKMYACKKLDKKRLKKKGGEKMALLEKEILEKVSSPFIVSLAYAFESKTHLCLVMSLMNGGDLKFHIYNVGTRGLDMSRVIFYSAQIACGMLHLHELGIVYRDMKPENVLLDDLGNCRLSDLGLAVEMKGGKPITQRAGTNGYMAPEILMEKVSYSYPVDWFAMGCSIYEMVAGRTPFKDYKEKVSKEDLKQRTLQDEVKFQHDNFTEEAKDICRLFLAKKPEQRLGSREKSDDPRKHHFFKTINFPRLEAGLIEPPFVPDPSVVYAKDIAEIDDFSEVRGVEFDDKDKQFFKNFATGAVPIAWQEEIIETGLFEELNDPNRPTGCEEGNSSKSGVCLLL
The settings on record: read-out: %Inh GRK7.

In test [7] the target is T2, HASPIN (Homo sapiens, UniProt Q8TF76).
T2 sequence (Q8TF76 1-798): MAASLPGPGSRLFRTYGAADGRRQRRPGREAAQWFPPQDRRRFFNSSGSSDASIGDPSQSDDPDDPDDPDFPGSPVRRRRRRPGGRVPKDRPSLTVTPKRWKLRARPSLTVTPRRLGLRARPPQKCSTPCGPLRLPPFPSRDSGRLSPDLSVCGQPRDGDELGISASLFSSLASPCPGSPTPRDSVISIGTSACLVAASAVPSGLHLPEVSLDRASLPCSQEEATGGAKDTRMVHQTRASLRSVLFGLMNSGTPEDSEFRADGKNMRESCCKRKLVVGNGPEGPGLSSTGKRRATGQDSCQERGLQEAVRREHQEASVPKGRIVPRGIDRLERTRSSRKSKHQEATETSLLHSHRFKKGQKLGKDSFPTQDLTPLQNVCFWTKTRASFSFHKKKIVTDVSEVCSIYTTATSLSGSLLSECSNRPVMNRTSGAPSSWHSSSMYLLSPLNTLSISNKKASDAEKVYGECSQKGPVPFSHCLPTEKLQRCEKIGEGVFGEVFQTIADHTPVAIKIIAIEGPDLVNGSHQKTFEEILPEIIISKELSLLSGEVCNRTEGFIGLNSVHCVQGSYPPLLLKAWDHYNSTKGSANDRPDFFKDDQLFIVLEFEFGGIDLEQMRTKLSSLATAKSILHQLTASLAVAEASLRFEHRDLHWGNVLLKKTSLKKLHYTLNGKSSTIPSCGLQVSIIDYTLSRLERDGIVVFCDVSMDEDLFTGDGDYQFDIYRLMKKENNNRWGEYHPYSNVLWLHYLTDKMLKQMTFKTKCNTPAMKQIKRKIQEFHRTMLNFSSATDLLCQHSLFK
The settings on record: read-out: %Inh HASPIN.

Test [8] deals with T3, HUNK (Homo sapiens, UniProt P57058).
T3 sequence (P57058 1-714): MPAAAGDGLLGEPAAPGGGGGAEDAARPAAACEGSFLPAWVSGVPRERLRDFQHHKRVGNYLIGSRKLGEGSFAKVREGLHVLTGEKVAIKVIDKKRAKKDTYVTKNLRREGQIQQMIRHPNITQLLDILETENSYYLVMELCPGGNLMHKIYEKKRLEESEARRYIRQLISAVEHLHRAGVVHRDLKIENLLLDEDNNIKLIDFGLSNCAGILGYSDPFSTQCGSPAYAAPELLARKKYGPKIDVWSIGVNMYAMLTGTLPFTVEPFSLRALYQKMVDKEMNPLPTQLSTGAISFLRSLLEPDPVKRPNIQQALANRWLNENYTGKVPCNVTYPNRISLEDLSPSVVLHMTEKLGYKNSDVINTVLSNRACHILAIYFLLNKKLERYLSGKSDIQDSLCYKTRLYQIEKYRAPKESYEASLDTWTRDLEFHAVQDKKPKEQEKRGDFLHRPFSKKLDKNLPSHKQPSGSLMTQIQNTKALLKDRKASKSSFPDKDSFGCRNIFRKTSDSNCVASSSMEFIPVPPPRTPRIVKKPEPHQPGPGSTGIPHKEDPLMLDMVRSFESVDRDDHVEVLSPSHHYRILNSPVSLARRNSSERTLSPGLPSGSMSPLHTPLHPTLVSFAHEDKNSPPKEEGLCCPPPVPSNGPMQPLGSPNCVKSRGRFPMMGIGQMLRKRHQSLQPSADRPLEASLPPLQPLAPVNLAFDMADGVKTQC
The settings on record: read-out: %Inh HUNK.

Test [9] deals with T4, LKB1 (Homo sapiens, UniProt Q15831).
T4 sequence (Q15831 1-433): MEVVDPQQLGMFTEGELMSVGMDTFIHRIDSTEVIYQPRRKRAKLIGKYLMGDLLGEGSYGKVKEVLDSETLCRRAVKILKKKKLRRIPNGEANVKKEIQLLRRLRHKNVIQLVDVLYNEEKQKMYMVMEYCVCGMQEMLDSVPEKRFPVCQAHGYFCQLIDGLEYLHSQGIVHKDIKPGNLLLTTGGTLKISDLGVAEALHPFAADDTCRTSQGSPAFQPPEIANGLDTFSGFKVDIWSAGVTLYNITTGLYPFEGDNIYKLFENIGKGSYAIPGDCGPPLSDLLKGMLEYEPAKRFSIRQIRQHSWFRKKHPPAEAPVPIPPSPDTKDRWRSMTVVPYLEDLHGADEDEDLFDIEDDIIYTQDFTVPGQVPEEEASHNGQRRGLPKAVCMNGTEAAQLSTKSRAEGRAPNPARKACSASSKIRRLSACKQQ
The settings on record: read-out: %Inh LKB1.

We go through five molecules from article PMC5540273, “Progress towards a public chemogenomic set for protein kinases and a call for contributions” (PLoS ONE, 2017).

Sequence of CAMK2D (Q13557 whole entry): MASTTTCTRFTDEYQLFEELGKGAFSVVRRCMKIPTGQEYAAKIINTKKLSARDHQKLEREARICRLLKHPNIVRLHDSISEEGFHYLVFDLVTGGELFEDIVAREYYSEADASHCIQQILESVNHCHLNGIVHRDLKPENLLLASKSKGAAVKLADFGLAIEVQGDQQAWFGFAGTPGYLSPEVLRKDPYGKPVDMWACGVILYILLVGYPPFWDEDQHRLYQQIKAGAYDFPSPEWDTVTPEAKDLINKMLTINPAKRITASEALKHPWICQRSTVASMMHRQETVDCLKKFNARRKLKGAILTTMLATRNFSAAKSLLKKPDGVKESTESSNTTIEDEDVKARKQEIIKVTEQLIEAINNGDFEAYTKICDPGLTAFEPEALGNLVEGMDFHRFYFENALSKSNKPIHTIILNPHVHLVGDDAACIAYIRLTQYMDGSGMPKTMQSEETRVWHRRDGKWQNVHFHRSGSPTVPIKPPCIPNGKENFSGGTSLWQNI
Sequence of CDK11 (Q9BWU1 whole entry): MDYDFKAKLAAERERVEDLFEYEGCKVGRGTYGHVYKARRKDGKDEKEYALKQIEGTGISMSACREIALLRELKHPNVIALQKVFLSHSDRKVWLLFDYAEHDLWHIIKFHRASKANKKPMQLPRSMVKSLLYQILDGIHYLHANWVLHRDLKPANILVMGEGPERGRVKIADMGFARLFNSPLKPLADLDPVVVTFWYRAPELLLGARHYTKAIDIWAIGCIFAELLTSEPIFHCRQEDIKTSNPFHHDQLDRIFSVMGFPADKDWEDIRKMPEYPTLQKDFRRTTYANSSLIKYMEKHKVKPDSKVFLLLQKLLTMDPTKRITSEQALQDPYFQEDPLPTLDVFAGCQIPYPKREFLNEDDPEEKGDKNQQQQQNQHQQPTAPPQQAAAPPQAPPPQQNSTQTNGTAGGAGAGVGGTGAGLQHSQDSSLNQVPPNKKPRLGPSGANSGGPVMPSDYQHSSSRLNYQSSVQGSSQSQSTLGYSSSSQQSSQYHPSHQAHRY
Sequence of CSNK1D (P48730 whole entry): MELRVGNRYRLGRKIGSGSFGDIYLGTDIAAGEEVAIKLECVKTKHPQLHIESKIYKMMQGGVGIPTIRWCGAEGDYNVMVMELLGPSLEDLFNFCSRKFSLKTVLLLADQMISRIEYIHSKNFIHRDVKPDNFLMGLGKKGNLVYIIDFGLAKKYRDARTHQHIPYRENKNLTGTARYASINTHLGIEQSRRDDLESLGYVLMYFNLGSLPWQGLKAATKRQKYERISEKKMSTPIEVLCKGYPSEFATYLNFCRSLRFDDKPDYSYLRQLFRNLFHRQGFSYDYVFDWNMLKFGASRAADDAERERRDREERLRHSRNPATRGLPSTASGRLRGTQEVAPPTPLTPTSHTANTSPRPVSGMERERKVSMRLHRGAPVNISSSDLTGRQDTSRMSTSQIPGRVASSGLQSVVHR
Sequence of CDK8 (P49336 whole entry): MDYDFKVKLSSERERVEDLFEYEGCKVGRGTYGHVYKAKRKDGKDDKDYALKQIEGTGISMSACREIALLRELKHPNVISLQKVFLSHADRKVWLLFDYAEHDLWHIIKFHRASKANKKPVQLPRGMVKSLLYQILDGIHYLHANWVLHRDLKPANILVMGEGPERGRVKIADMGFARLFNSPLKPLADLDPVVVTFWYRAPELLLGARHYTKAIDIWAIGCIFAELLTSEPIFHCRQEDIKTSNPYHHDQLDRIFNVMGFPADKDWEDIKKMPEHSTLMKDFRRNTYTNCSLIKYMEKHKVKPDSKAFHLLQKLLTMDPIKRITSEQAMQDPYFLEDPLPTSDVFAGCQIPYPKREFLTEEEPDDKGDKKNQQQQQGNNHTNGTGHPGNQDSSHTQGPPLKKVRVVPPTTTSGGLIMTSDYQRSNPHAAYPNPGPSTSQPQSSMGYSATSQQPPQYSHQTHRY
Sequence of EPHA5 (P54756 25-1037): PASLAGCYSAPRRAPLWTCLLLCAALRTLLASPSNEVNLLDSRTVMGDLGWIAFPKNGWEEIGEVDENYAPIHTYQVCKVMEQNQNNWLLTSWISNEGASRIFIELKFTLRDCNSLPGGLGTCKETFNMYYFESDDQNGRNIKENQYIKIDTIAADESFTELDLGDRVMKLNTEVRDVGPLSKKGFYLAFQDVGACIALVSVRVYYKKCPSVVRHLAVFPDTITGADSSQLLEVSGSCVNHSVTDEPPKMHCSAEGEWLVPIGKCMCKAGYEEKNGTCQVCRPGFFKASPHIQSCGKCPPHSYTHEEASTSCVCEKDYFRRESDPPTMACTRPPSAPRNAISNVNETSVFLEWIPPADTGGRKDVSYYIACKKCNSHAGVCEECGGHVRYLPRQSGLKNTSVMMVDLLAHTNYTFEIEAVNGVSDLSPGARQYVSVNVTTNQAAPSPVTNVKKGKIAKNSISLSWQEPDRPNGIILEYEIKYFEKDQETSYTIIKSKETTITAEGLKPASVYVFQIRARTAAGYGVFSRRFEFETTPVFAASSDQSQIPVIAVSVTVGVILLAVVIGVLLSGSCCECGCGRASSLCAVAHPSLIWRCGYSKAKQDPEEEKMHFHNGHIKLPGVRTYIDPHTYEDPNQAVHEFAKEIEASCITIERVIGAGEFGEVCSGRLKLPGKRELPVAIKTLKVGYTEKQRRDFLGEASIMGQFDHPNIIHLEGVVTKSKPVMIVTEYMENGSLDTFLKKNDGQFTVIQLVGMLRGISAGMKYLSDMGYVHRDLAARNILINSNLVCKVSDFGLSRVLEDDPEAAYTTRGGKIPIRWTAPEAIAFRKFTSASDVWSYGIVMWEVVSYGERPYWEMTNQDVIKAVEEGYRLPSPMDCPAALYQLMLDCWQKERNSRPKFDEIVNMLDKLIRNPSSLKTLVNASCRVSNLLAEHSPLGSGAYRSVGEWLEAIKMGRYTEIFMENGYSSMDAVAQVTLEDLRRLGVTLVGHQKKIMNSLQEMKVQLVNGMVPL

As for `COc1cccc(OC)c1C(=O)Nc1cccc(-c2nn3ccccc3c2-c2ccnc(Nc3cccc(F)c3)n2)c1` [UNC10225310A], the inhibition at 1 µM came to 0% in test [1]; 0% in test [2]; 0% in [3]; 9% in test [4]; 11% in [5]; 17% in test [6]. Moreover, the inhibition at 1 µM in [7] came out at 0%; in test [8] it was 15%; in test [9] it was 6%.

For the molecule `O=c1cc(N2CCOCC2)nc2n(Cc3cccc(Cl)c3Cl)c(C3CC3)nn12` [UNC10225469A], the inhibition at 1 µM in [1] was determined as 18%; in test [2], 0%; in test [3] it was 0%; in [4], 7%; in test [5], 6%; in test [6], 0%. The inhibition at 1 µM worked out at 0% in test [7], 0% in [8] and 15% in [9].

For `Cn1cc(-c2cnc(N)c3c(-c4ccc5c(c4)CCN5C(=O)Cc4ccccc4)csc23)cn1` [UNC10225012A], the inhibition at 1 µM in test [1] was found to be 0%; in test [2] it was 18%; in test [3] it was 19%; in test [4], 0%; in [5], 0%; in test [6], 6%. Also, the inhibition at 1 µM in test [7], in test [8] and in test [9] was 0% throughout.

For `CS(=O)(=O)Cc1ccc(Nc2nccc(-c3c(-c4cccc(NC(=O)C5CCCCC5)c4)nn4ncccc34)n2)cc1` [UNC10225159A], the inhibition at 1 µM in test [1] was 0%; in test [2], 0%; in [3], 0%; in [4], 0%; in [5], 0%; in [6], 5%. In addition, the inhibition at 1 µM was 17% in test [7], 7% in test [8] and 0% in [9].

Regarding `Cc1ccc(NC(=O)Nc2cccc(C(F)(F)F)c2)cc1` [UNC10225187A], the inhibition at 1 µM in test [1] turned out to be 8%; in [2], 20%; in test [3], 0%; in [4] it was 0%; in test [5] it was 0%; in [6], 10%. Further, the inhibition at 1 µM in test [7] worked out at 12%; in test [8], 0%; in [9], 16%.
